Measurements as given in ChEMBL document CHEMBL4828719, “H2dpa derivatives containing pentadentate ligands: An acyclic adjuvant potentiates meropenem activity in vitro and in vivo against metallo-β-lactamase-producing Enterobacterales” (Eur J Med Chem, 2021).
In brackets after ≈: the same amount, converted by molar mass. Activity calls are given as the source filed them. The rule behind the calls is not given here.

What was measured:
[1] = Acute toxicity in BALB/c mouse assessed as change in WBC count at 50 mg/kg, ip administered as single dose measured after 24 hrs; type: organism-based; conditions: in vivo
[2] = Acute toxicity in BALB/c mouse assessed as pathological changes in kidney at 50 mg/kg, ip administered as single dose measured after 24 hrs by hematoxylin and eosin staining based assay; type: organism-based; conditions: in vivo
[3] = Zinc chelation-dependent inhibition of VIM-2 (unknown origin) expressed in Escherichia coli DH5 alpha using nitrocefin as substrate preincubated with enzyme for 5 mins followed by substrate addition in presence of zinc sulfate
[4] = Acute toxicity in BALB/c mouse assessed as change in creatinine level in serum at 50 mg/kg, ip administered as single dose measured after 24 hrs; type: organism-based; conditions: in vivo
[5] = Acute toxicity in BALB/c mouse assessed as pathological changes in liver at 50 mg/kg, ip administered as single dose measured after 24 hrs by hematoxylin and eosin staining based assay; type: organism-based; conditions: in vivo
Escherichia coli [6] = assay: Antibiotic adjuvant activity against meropenem-treated NDM-1 producing Escherichia coli DH5 alpha assessed as bacterial growth at 8 ug/ml incubated for 16 to 20 hrs in the presence of meropenem by CLSI based microdilution method; type: functional; conditions: dose 8 µg/ml; time 16-20 hrs
Klebsiella pneumoniae [7] = assay: Antibacterial activity against NDM-producing carbapenem resistant Klebsiella pneumoniae infected in BALB/c mouse sepsis model assessed as swollen and degenerated liver cells with localized focal necrosis at 10 mg/kg, ip observed for 2 days by HE staining based assay; type: functional, organism-based; conditions: time 2.0 day
Escherichia coli [8] = assay: Synergistic antibacterial activity against IMP-4 producing Escherichia coli DH5alpha assessed as fractional inhibitory concentration index incubated for 16 to 20 hrs in presence of meropenem by checkerboard assay; type: functional, DH5[alpha]; conditions: time 16-20 hrs
Klebsiella oxytoca = assay: Antibacterial activity against MBL producing Klebsiella oxytoca isolates assessed as inhibition of bacterial growth at 64 ug/ml incubated for 16 to 20 hrs by CLSI based microdilution method; type: functional, organism-based; conditions: dose 64.0 µg/ml, time 16-20 hrs
Escherichia coli [9] = assay: Antibiotic adjuvant activity against meropenem-treated VIM-1 producing Escherichia coli DH5 alpha assessed as inhibition of bacterial growth at 8 ug/ml incubated for 16 to 20 hrs in the presence of meropenem and 1 to 10 uM zinc sulfate by CLSI based microdilution method; type: functional, organism-based; conditions: dose 8.0 µg/ml, time 16-20 hrs
Klebsiella pneumoniae [10] = assay: Antibacterial activity against NDM-producing carbapenem resistant Klebsiella pneumoniae infected in BALB/c mouse sepsis model assessed as animal survival at 10 mg/kg, ip measured after 48 hrs; type: functional, organism-based
Escherichia coli [11] = assay: Antibiotic adjuvant activity against IMP-4 producing Escherichia coli DH5alpha assessed as potentiation of meropenem-induced antibacterial activity incubated for 16 to 20 hrs by agar disc diffusion assay; type: functional, organism-based; conditions: DH5[alpha], time 16-20 hrs
Escherichia coli [12] = assay: Synergistic antibacterial activity against VIM-1 producing Escherichia coli DH5alpha assessed as fractional inhibitory concentration index incubated for 16 to 20 hrs in presence of meropenem by checkerboard assay; type: functional, DH5[alpha]; conditions: time 16-20 hrs
Escherichia coli [13] = assay: Antibacterial activity against VIM-1 producing Escherichia coli DH5alpha assessed as decrease in bacterial growth incubated for 16 to 20 hrs by CLSI based microdilution method; type: functional; conditions: DH5[alpha], time 16-20 hrs
[14] = Zinc chelation-dependent inhibition of IMP-4 (unknown origin) expressed in Escherichia coli BL21 (DE3) using imipenem as substrate preincubated with enzyme for 5 to 10 mins followed by substrate addition
Escherichia coli [15] = assay: Antibiotic adjuvant activity against meropenem-treated IMP-4 producing Escherichia coli DH5 alpha assessed as inhibition of bacterial growth at 8 ug/ml incubated for 16 to 20 hrs in the presence of meropenem and 1 to 10 uM zinc sulfate by CLSI based microdilution method; type: functional, organism-based; conditions: dose 8.0 µg/ml, time 16-20 hrs
[16] = Zinc chelation-dependent inhibition of NDM-1 (unknown origin) expressed in Escherichia coli BL21 (DE3) using meropenem as substrate preincubated with enzyme for 5 to 10 mins followed by substrate addition
[17] = Acute toxicity in BALB/c mouse assessed as pathological changes in spleen at 50 mg/kg, ip administered as single dose measured after 24 hrs by hematoxylin and eosin staining based assay; type: organism-based; conditions: in vivo
[18] = Acute toxicity in BALB/c mouse assessed as change in RBC count at 50 mg/kg, ip administered as single dose measured after 24 hrs; type: organism-based; conditions: in vivo
Escherichia coli [19] = assay: Antibacterial activity against IMP-4 producing Escherichia coli DH5alpha assessed as decrease in bacterial growth incubated for 16 to 20 hrs by CLSI based microdilution method; type: functional; conditions: DH5[alpha], time 16-20 hrs
Escherichia coli [20] = assay: Antibacterial activity against VIM-1 producing Escherichia coli DH5 alpha assessed as bacterial growth at 8 ug/ml incubated for 16 to 20 hrs by CLSI based microdilution method; type: functional; conditions: dose 8 µg/ml; time 16-20 hrs
Escherichia coli [21] = assay: Antibiotic adjuvant activity against NDM-1 producing Escherichia coli DH5alpha assessed as potentiation of meropenem-induced antibacterial activity by measuring meropenem MIC at 16 ug/ml incubated for 16 to 20 hrs by checkerboard assay (reference value: 32 ug/ml); type: functional; conditions: DH5[alpha], dose 16 µg/ml, time 16-20 hrs
[22] = Non competitive inhibition of IMP-1 (unknown origin) assessed as inhibition of substrate hydrolysis by measuring decrease in Vmax using imipenem as substrate preincubated with enzyme for 5 mins followed by substrate addition by Lineweaver-Burk plot analysis
Escherichia coli [23] = assay: Antibiotic adjuvant activity against meropenem-treated VIM-1 producing Escherichia coli DH5 alpha assessed as bacterial growth at 8 ug/ml incubated for 16 to 20 hrs in the presence of meropenem and 100 uM zinc sulfate by CLSI based microdilution method; type: functional; conditions: dose 8 µg/ml; time 16-20 hrs
Escherichia coli [24] = assay: Antibiotic adjuvant activity against meropenem-treated NDM-1 producing Escherichia coli DH5 alpha assessed as inhibition of bacterial growth at 8 ug/ml incubated for 16 to 20 hrs in the presence of meropenem and 100 uM zinc sulfate by CLSI based microdilution method; type: functional, organism-based; conditions: dose 8.0 µg/ml, time 16-20 hrs
[25] = Non competitive inhibition of NDM-1 (unknown origin) assessed as inhibition of substrate hydrolysis by measuring decrease in Vmax using meropenem as substrate preincubated with enzyme for 5 mins followed by substrate addition by Lineweaver-Burk plot analysis
Escherichia coli [26] = assay: Antibiotic adjuvant activity against meropenem-treated NDM-1 producing Escherichia coli DH5 alpha assessed as inhibition of bacterial growth at 8 ug/ml incubated for 16 to 20 hrs in the presence of meropenem and 1 to 10 uM zinc sulfate by CLSI based microdilution method; type: functional, organism-based; conditions: dose 8.0 µg/ml, time 16-20 hrs
Escherichia coli [27] = assay: Antibiotic adjuvant activity against meropenem-treated VIM-1 producing Escherichia coli DH5 alpha assessed as bacterial growth at 8 ug/ml incubated for 16 to 20 hrs in the presence of meropenem by CLSI based microdilution method; type: functional; conditions: dose 8 µg/ml; time 16-20 hrs
Klebsiella pneumoniae [28] = assay: Antibiotic adjuvant activity against meropenem-treated NDM-producing carbapenem resistant Klebsiella pneumoniae infected in BALB/c mouse sepsis model assessed as reduction in neutrophil infiltration in red pulp of spleen at 10 mg/kg, ip in the presence of meropenem observed for 2 days by HE staining based assay; type: functional, organism-based; conditions: time 2.0 day
Enterobacter hormaechei = assay: Antibacterial activity against MBL producing Enterobacter hormaechei isolates assessed as inhibition of bacterial growth at 64 ug/ml incubated for 16 to 20 hrs by CLSI based microdilution method; type: functional, organism-based; conditions: dose 64.0 µg/ml, time 16-20 hrs
Escherichia coli [29] = assay: Antibiotic adjuvant activity against meropenem-treated IMP-4 producing Escherichia coli DH5 alpha assessed as bacterial growth at 8 ug/ml incubated for 16 to 20 hrs in the presence of meropenem and 100 uM zinc sulfate by CLSI based microdilution method; type: functional; conditions: dose 8 µg/ml; time 16-20 hrs

Row | SMILES | Activity [1] | Activity [2] | Activity [3] | Activity [4] | Activity [5] | Activity (Escherichia coli [6]) [%] | Activity (Klebsiella pneumoniae [7]) | fractional inhibitory concentration index (FICI) (Escherichia coli [8]) | Activity (Klebsiella oxytoca) | Activity (Escherichia coli [9]) | Activity (Klebsiella pneumoniae [10]) | Activity (Escherichia coli [11]) | fractional inhibitory concentration index (FICI) (Escherichia coli [12]) | MIC (Escherichia coli [13]) [µg/mL] | IC50 [14] [nM] | Activity (Escherichia coli [15]) | IC50 [16] [nM] | Activity [17] | Activity [18] | MIC (Escherichia coli [19]) [µg/mL] | further results
1 | C[C@H](C(=O)O)N(Cc1cccc(C(=O)O)n1)Cc1cccc(C(=O)O)n1 | Non-Toxic | Non-Toxic | inactive | Non-Toxic | Non-Toxic | <10 | inactive | 0.14 | inactive | Active | inactive | Active | 0.07 | 128 (≈ 356 µM) | 4400 | Active | 1600 | Non-Toxic | Non-Toxic | 128 (≈ 356 µM) | Activity (Escherichia coli [20]): 95%; MIC (Escherichia coli [21]): < 0.0312 µg/mL; Ki [22]: 1570 nM; Activity (Escherichia coli [23]): 100%; Activity (Escherichia coli [24]): inactive; Ki [25]: 1590 nM; Activity (Escherichia coli [26]): Active; Activity (Escherichia coli [27]): <10%; Activity (Klebsiella pneumoniae [28]): Active; Activity (Enterobacter hormaechei): inactive; Activity (Escherichia coli [29]): 100%
2 | C[C@@H](C(=O)O)N(Cc1cccc(C(=O)O)n1)Cc1cccc(C(=O)O)n1 | Non-Toxic | Non-Toxic | inactive | Non-Toxic | Non-Toxic | <10 | inactive | 0.14 | inactive | Active | inactive | Active | 0.07 | 128 (≈ 356 µM) | 4170 | Active | 1690 | Non-Toxic | Non-Toxic | 128 (≈ 356 µM) | Activity (Escherichia coli [20]): 95%; MIC (Escherichia coli [21]): < 0.0312 µg/mL; Ki [22]: 1540 nM; Activity (Escherichia coli [23]): 100%; Activity (Escherichia coli [24]): inactive; Ki [25]: 1700 nM; Activity (Escherichia coli [26]): Active; Activity (Escherichia coli [27]): <10%; Activity (Klebsiella pneumoniae [28]): Active; Activity (Enterobacter hormaechei): inactive; Activity (Escherichia coli [29]): 100%
